Source: paper PMC4775225, “Bromodomain inhibition of the transcriptional coactivators CBP/EP300 as a therapeutic strategy to target the IRF4 network in multiple myeloma” (eLife, 2016)
Read-outs that look alike come from different tables or passages of the source.

What was measured:
[1] = biological target: T1, first bromodomain of BRD4 (BRD4-BD1) (Homo sapiens, UniProt O60885); assay: AlphaLISA, acetylated peptide binding to BRD4-BD1
T1 construct: the first bromodomain of BRD4 (BRD4-BD1)
Description: Compound at varying concentrations were dispensed into 384 well Proxiplates (Perkin Elmer) using Echo technology (Labcyte, Inc.; Sunnyvale, CA). For CBP assays, 0.5 μM His-Flag-tagged CBP bromodomain (amino acids 1082–1197) was incubated with 0.003 μM H4-TetraAc-biotin for 20 min at room temperature in 1x reaction buffer (50 mM HEPES pH 7.5, 1 mM TCEP, 0.069 mM Brij-35, 150 mM NaCl, and 0.1 mg/ml BSA). Streptavidin acceptor beads and nickel donor beads (Perkin Elmer) were added to 15 μg/ml with a Combi Multidrop dispenser. Plates were sealed and incubated at 90 min in the dark at room temperature, and plates were read on an Envision plate reader (Perkin Elmer) according to manufacturer’s instructions. For the BET assays, the protocol was similar except that BET family bromodomains were used at 0.03 μM (BRD4-BD1) and incubated with 0.2 μM H4-TetraAc-biotin for 20 min in reaction buffer (40 mM HEPES pH7.0, 1 mM DTT, 0.069 mM Brij-35, 40 mM NaCl, and 0.1 mg/ml BSA). Streptavidin donor beads and Anti-Flag Acceptor beads (Perkin Elmer) were added to 10 μg/ml, and then plates were sealed and incubated in the dark for 60 min prior to reading on the Envision.

380 = assay: Viability, resazurin, 6 days; assay type: cell-based; settings: Homo sapiens, 144 h, 380, ALL
Description: (§1) Cells were plated at 5000–10000 cells per well of 96-well plates containing titrations of the compounds as indicated. After incubation, the cells were incubated with 500 μg/ml resazurin (Sigma) in PBS for 2–8 hr, and fluorescence was measured (Ex 530 nm, Em 590 nm). Cell cycle analysis was performed as described previously ([Mertz et al., 2011]). For visualization, DNA content histograms were generated with GraphPad Prism. Dose-response curves were generated by plotting the normalized percent growth, percent sub-G1 and percent increase in G0/G1 at each dose values. GI50 values were determined as the concentration at which viability was 50% of the DMSO value and calculated by a four-parameter non-linear regression model in GraphPad Prism.

EJM = assay: Viability, resazurin, 6 days; assay type: cell-based; settings: Homo sapiens, 144 h, myeloma
Description: as §1

K562 = assay: Viability, resazurin, 6 days; assay type: cell-based; settings: Homo sapiens, 144 h, K562, CML
Description: as §1

KMS-11 = assay: Viability, resazurin, 6 days; assay type: cell-based; settings: Homo sapiens, 144 h, KMS-11, myeloma
Description: as §1

KMS20 = assay: Viability, resazurin, 6 days; assay type: cell-based; settings: Homo sapiens, KMS-20, 144 h, KMS20, myeloma
Description: as §1

KMS28PE = assay: Viability, resazurin, 6 days; assay type: cell-based; settings: Homo sapiens, KMS-28PE, 144 h, myeloma
Description: as §1

KMS34 = assay: Viability, resazurin, 6 days; assay type: cell-based; settings: Homo sapiens, KMS-34, 144 h, KMS34, myeloma
Description: as §1

KOPN-8 = assay: Viability, resazurin, 6 days; assay type: cell-based; settings: Homo sapiens, 144 h, KOPN-8, ALL
Description: as §1

Kasumi-2 = assay: Viability, resazurin, 6 days; assay type: cell-based; settings: Homo sapiens, 144 h, Kasumi-2, AML
Description: as §1

MN-60 = assay: Viability, resazurin, 6 days; assay type: cell-based; settings: Homo sapiens, 144 h, MN-60, ALL
Description: as §1

MV411 = assay: Viability, resazurin, 6 days; assay type: cell-based; settings: Homo sapiens, MV4-11, 144 h, MV411, AML
Description: as §1

Molt-16 = assay: Viability, resazurin, 6 days; assay type: cell-based; settings: Homo sapiens, 144 h, Molt-16, ALL
Description: as §1

NOMO-1 = assay: Viability, resazurin, 6 days; assay type: cell-based; settings: Homo sapiens, 144 h, NOMO-1, AML
Description: as §1

OCI-AML-2 = assay: Viability, resazurin, 6 days; assay type: cell-based; settings: Homo sapiens, OCI-AML2, 144 h, OCI-AML-2, AML
Description: as §1

OCI-AML-3 = assay: Viability, resazurin, 6 days; assay type: cell-based; settings: Homo sapiens, 144 h, OCI-AML-3, AML
Description: as §1

OCI-AML-5 = assay: Viability, resazurin, 6 days; assay type: cell-based; settings: Homo sapiens, 144 h, OCI-AML-5, AML
Description: as §1

PL21 = assay: Viability, resazurin, 6 days; assay type: cell-based; settings: Homo sapiens, PL-21, 144 h, PL21, APL
Description: as §1

REH = assay: Viability, resazurin, 6 days; assay type: cell-based; settings: Homo sapiens, 144 h, ALL
Description: as §1

SD-1 = assay: Viability, resazurin, 6 days; assay type: cell-based; settings: Homo sapiens, 144 h, SD-1, ALL
Description: as §1

SEM cells = assay: Viability, resazurin, 6 days; assay type: cell-based; settings: Homo sapiens, 144 h, ALL
Description: as §1

SKM-1 = assay: Viability, resazurin, 6 days; assay type: cell-based; settings: Homo sapiens, 144 h, SKM-1, AML
Description: as §1

THP-1 = assay: Viability, resazurin, 6 days; assay type: cell-based; settings: Homo sapiens, 144 h, THP-1, AML
Description: as §1

Tanoue = assay: Viability, resazurin, 6 days; assay type: cell-based; settings: Homo sapiens, 144 h, ALL
Description: as §1

IRF4 mRNA = IRF4 mRNA expression, qRT-PCR; assay type: cell-based, human; settings: for IC50: Homo sapiens, read-out: IC50, inhibition of IRF4 mRNA expression; for log2FC (IRF4): 2.5 μM, 6 hr, log2 fold change relative to DMSO
Description: Total RNA was prepared with an RNeasy Mini Kit (Qiagen, Inc.; Hilden, Germany) with on column DNAse digestion and submitted to Ocean Ridge Biosciences (Palm Beach Gardens, FL) for sequencing and mapping. The data in RPKM for each gene with compound treatment was compared to DMSO treatment, and log2 fold changes were used for further analysis. Rank ordered gene lists were used for Gene Set Enrichment Analysis ([Subramanian et al., 2005]). RNA preparation, cDNA synthesis, and qRT-PCR were performed as described ([Mertz et al., 2011]). For dose titration experiments, cells in 96 -well plates were lysed in lysis buffer (1% Triton X-100, […] pH 2.5) and used directly for cDNA synthesis and qRT-PCR. Primer sequences can be found in Supplementary file 1.

SMILES	IC50 [1] [µM]	GI50 380 [µM]	GI50 (EJM) [µM]	GI50 (K562) [µM]	GI50 (KMS-11) [µM]	GI50 (KMS20) [µM]	GI50 (KMS28PE) [µM]	GI50 (KMS34) [µM]	GI50 (KOPN-8) [µM]	GI50 (Kasumi-2) [µM]	GI50 (MN-60) [µM]	GI50 (MV411) [µM]	GI50 (Molt-16) [µM]	GI50 (NOMO-1) [µM]	GI50 (OCI-AML-2) [µM]	GI50 (OCI-AML-3) [µM]	GI50 (OCI-AML-5) [µM]	GI50 (PL21) [µM]	GI50 (REH) [µM]	GI50 (SD-1) [µM]	other results
CCC(=O)N1CCOc2c(cc(-c3ccc(OC)c(OC)c3)cc2OC[C@H]2CCCN(C)C2)C1 [I-CBP112]	8.9 ± 0.06	> 20	14.6	> 20	16.3	2.97	> 20	2.53	18.5	8.12	> 20	13.1	17.6	8.7	9.7	5.51	> 20	> 20	> 20	13.5	GI50 (SEM cells): 5.34 µM; GI50 (SKM-1): 15.9 µM; GI50 (THP-1): 5.35 µM; GI50 (Tanoue): > 20 µM; IC50 (IRF4 mRNA; OPM-2, OPM2, 6 hr): 2.9 µM; IC50 (IRF4 mRNA; LP-1, 6 hr): 2 µM
COc1ccc(CCc2nc3cc(-c4c(C)noc4C)ccc3n2C[C@H](C)N2CCOCC2)cc1Cl [SGC-CBP30]	2.1 ± 0.3	15.6	3.87	8.86	2.41	1.05	17.9	1.3	7.23	3.77	12.3	3.33	7.98	7.4	3.68	3.49	> 20	17	18.5	7.28	GI50 (SEM cells): 2.83 µM; GI50 (SKM-1): 6.61 µM; GI50 (THP-1): 2.85 µM; GI50 (Tanoue): 8.88 µM; log2FC (IRF4) (IRF4 mRNA; AMO1): -1.36; log2FC (IRF4) (IRF4 mRNA; H929): -0.75; IC50 (IRF4 mRNA; OPM-2, OPM2, 6 hr): 1.1 µM; IC50 (IRF4 mRNA; LP-1, 6 hr): 0.86 µM; log2FC (IRF4) (IRF4 mRNA; KMM1): -0.53; log2FC (IRF4) (IRF4 mRNA; KMS28BM): -0.93; log2FC (IRF4) (IRF4 mRNA; LP1): -1.23; time to suppression of IRF4 after addition of compound (IRF4 mRNA; LP-1, 2.5 μM): ≤ 2 h; log2FC (IRF4) (IRF4 mRNA; MOLP8): -1.29; log2FC (IRF4) (IRF4 mRNA; OPM2): -0.98; log2FC (IRF4) (IRF4 mRNA; RPMI8226): -0.55; log2FC (IRF4) (IRF4 mRNA; RS411): -0.31
